Each block holds one compound with its values, some of them ahead of it.
Legend:
[1] = Oral absorption in rats; assay type: in vivo; conditions: data not shown
Source text: Therefore, any of the compounds, wherein R^9 represents an alkyl group or a hydrogen atom, can be used in the treatment of the above diseases.

[2] = system: human platelet aggregation; experiment: Human platelet aggregation inhibitory activity (method of Pharmacological Test 1 in WO 94/21599); assay type: cell-based; conditions: for IC50: read-out: IC50, human platelet aggregation inhibition
Method: (§1) GP IIb/IIIa Antagonistic Activity and Human Platelet Aggregation Inhibitory Activity
Human platelet aggregation inhibitory activity was measured for the compounds according to the present invention. The measurement of the human platelet aggregation activity was carried out according to the method described in Pharmacological Test 1 in WO 94/21599.

[3] = target: GP IIb/IIIa (Homo sapiens, UniProt P05106+P08514); experiment: GP IIb/IIIa antagonistic activity (method of Pharmacological Test 2 in WO 94/21599); assay type: binding
GP IIb/IIIa, sequence (P08514 32-887 limits assumed): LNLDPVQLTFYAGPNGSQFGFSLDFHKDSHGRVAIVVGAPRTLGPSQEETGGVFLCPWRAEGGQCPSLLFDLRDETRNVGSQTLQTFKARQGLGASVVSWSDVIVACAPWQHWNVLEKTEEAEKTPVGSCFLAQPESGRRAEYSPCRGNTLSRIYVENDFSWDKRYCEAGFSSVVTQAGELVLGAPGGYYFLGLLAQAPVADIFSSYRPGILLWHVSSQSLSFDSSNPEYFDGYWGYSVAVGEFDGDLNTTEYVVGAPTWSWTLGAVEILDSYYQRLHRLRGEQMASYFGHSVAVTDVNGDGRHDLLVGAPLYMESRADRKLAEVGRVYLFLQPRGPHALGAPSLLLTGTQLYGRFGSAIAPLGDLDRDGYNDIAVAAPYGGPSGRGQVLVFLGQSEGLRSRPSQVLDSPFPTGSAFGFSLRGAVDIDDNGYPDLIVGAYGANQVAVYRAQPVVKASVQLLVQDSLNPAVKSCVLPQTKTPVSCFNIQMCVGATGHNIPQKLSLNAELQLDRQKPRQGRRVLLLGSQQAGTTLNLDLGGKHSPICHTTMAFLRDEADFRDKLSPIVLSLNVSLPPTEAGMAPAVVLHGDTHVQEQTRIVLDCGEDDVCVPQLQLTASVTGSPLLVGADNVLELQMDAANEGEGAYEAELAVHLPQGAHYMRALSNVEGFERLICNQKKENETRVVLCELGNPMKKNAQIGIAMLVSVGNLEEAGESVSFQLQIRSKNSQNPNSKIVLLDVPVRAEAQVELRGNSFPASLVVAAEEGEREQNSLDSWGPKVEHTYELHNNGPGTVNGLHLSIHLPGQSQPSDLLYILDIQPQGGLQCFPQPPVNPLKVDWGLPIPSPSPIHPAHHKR
GP IIb/IIIa, sequence (P08514 891-1039 partner limits assumed): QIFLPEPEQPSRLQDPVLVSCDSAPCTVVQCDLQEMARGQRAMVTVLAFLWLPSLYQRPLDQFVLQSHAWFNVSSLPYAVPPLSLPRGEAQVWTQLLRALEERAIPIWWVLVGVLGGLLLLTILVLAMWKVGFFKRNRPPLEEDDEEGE
GP IIb/IIIa, sequence (P05106 27-788): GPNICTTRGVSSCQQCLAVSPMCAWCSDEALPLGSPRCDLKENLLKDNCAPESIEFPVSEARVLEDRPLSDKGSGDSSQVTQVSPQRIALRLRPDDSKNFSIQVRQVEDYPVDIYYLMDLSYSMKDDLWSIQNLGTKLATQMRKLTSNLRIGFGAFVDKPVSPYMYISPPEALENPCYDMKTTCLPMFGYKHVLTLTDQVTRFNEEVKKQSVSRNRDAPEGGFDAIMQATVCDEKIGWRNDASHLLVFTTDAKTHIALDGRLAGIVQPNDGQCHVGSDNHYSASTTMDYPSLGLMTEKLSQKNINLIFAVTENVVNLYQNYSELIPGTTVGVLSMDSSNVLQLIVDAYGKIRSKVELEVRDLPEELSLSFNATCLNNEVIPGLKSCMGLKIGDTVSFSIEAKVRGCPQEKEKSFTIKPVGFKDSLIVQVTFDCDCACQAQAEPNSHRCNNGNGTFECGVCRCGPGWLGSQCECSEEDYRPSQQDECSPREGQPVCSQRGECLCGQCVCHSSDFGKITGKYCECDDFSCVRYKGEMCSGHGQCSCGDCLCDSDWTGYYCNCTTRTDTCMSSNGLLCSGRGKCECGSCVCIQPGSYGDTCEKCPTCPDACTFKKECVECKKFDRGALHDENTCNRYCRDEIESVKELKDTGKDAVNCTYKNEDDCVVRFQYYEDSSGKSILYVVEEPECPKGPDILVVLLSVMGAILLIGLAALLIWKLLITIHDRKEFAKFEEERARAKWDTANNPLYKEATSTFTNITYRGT
Method: as §1
GP IIb/IIIa antagonistic activity was measured for the compounds according to the present invention. The measurement of the GP IIb/IIIa antagonistic activity was carried out according to the method described in Pharmacological Test 2 in WO 94/21599.

[4] = target: T1, integrin αvβ3 (vitronectin receptor purified from the human placenta) (Homo sapiens, UniProt P05106+P06756); experiment: αvβ3 binding assay (vitronectin-vitronectin receptor binding assay); conditions: for IC50: vitronectin receptor from human placenta, read-out: IC50, inhibition of binding between vitronectin and vitronectin receptor (αvβ3 binding inhibitory activity)
T1 construct: a vitronectin receptor (protein content: 118 μg/ml) purified from the human placenta; from tissue; host or cells: human placenta
T1 sequence (P06756 31-889 limits assumed): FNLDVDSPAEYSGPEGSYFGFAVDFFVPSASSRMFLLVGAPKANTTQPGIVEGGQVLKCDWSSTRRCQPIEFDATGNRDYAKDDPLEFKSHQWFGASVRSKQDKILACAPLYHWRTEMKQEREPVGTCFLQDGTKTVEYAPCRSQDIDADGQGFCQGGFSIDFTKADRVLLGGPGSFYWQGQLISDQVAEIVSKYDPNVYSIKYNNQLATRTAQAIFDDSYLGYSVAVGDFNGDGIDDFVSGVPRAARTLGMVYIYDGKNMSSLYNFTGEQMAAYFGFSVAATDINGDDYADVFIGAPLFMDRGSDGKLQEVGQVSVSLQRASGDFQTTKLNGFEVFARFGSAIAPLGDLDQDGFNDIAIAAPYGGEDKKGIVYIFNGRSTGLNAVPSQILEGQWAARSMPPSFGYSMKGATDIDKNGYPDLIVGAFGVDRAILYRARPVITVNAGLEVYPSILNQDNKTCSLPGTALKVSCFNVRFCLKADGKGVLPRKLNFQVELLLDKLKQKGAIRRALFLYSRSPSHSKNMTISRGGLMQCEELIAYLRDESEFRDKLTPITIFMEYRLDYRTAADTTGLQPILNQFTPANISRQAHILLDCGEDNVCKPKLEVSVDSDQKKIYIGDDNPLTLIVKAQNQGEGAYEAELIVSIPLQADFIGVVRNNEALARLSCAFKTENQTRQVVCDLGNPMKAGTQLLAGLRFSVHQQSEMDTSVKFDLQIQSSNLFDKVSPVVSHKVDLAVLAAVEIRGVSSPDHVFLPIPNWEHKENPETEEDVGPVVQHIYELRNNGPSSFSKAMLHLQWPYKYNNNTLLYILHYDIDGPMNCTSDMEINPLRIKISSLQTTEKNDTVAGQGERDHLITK
T1 sequence (P06756 891-1048 partner limits assumed): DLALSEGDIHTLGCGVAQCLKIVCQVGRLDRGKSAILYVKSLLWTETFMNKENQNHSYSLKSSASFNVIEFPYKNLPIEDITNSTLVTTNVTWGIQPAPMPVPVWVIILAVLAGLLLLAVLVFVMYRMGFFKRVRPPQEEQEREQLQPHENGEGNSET
T1 sequence (P05106 27-788): as the sequence (P05106 27-788) above
Method: Integrin αvβ3 antagonistic activity was measured for the compounds according to the present invention in a vitronectin-vitronectin receptor binding assay system in accordance with the method of Kouns et al. (W. C. Kouns, D. Kirchhofer, P. Hadvary, A. Edenhofer, T. Weller, G. Pfenninger, H. R. Baumgartner, L. K. Jennings and B. Steiner, Blood, 8, 2539-2547 (1992)).
Specifically, a vitronectin receptor (protein content: 118 μg/ml) purified from the human placenta in accordance with the method of Pytela et al. (R. Pytela, M. D. Pierschbacher, S. Argraves, S. Suzuki, and E. Ruoslahti, Method in Enzymology, 144, 475-489 (1987)) was diluted 50 times with TBS (20 mM Tris-HCl, 150 mM NaCl, 1 mM CaCl2, 1 mM MgCl2, pH 7.4), and distributed and coated on wells (50 μl/well) of a plate (Maxisorp, Nunc, 96 well Immuno Plate). The plate was then allowed to stand at 4° C. for 1 day, washed twice with TBS (200 μl/well), and then subjected to blocking with TBS (150 μl/well) containing 1% bovine serum albumin (SIGMA) at 4° C. overnight. After washing twice with TBS (200 μl/well), 50 μl of vitronectin (CALBIOCHEM) adjusted to 0.2 μg/ml by the addition of TBS (TBS-Tween) containing 0.01% Tween-20 was mixed with 50 μl of each test compound adjusted to each concentration in wells, and a reaction was allowed to proceed at room temperature for 4 hr. After the completion of the reaction, the wells were washed five times with TBS-Tween. A solution prepared by diluting anti-vitronectin rabbit antiserum (CHEMICON) 500 times with TBS-Tween was added as a primary antibody in an amount of 50 μl per well, and a reaction was allowed to proceed at room temperature for 1.5 hr. After washing five times with 200 μl/well of TBS-Tween, a peroxidase (POD)-labeled anti-rabbit IgG antibody solution (CAPPEL) diluted 500 times with TBS-Tween was added as a secondary antibody in an amount of 50 μl/well, and a reaction was allowed to proceed at room temperature for 1.5 hr. After washing five times with TBS-Tween (200 μl /well), ABTS (2,2′-azino-bis(3-ethylbenzthiazoline-6-sulfonic acid), SIGMA) was adjusted to 1 mg/ml by the addition of a ten-fold diluted POD-buffer (ZYMED), and added in an amount of 50 μl/well, and a reaction was allowed to proceed for 5 to 10 min. A 0.1 M citric acid buffer (pH 4.3) containing 0.05% NaN3 was added in an amount of 50 μl/well to stop the reaction, followed by the measurement of the absorbance at 415 nm with a microplate reader (MTP 32, Corona Electric) (reference: 675 nm). The total binding was defined as the absorbance after a reaction using 50 μl of TBS-Tween instead of the test compound, and the non-specific binding (100% inhibition) was defined as the absorbance after a reaction using 50 μl of TBS-Tween containing 2×10^−3 M RGDS. The inhibition was calculated by the following equation: [formula]
(§2) IC50 was determined from a primary regression line of the logarithm of each concentration of the test compound and the logarithm of (100−inhibition)/inhibition.

[5] = target: T2, integrin α5β1 (fibronectin receptor purified from the human placenta) (Homo sapiens, UniProt P05556+P08648); experiment: α5β1 binding assay (fibronectin-fibronectin receptor binding assay); conditions: read-out: IC50, integrin α5β1 antagonistic activity (fibronectin-fibronectin receptor binding)
T2 construct: a fibronectin receptor (protein content: 52.1 μg/ml) purified from the human placenta; from tissue; host or cells: human placenta
T2 sequence (P08648 42-894 limits assumed): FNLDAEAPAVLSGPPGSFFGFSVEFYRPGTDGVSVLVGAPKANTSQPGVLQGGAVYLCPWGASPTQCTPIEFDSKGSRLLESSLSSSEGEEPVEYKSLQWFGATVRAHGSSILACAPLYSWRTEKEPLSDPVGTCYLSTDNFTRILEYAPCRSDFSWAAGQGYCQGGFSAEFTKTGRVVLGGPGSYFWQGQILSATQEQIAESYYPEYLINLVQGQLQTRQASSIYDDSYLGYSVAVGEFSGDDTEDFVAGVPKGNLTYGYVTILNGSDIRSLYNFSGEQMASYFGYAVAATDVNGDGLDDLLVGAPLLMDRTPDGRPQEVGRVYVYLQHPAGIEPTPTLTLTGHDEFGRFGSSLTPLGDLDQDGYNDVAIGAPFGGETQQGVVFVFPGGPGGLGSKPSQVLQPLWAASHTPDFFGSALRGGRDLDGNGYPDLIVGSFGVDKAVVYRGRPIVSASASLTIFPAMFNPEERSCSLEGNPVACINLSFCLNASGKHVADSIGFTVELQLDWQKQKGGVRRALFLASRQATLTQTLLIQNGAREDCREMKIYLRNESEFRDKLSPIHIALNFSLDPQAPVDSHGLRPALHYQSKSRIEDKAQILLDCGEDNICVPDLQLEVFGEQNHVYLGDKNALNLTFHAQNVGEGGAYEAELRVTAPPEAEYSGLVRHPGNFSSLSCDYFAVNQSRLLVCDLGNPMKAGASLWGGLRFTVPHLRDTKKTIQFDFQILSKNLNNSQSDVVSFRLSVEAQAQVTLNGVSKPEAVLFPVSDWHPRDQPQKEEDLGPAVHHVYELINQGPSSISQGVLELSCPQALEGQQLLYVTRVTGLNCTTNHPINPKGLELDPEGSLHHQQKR
T2 sequence (P08648 895-1049 partner limits assumed): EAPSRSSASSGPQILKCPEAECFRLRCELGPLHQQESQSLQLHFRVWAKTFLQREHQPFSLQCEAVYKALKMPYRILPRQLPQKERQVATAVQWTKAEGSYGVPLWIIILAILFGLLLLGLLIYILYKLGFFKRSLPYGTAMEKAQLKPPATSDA
T2 sequence (P05556 21-798): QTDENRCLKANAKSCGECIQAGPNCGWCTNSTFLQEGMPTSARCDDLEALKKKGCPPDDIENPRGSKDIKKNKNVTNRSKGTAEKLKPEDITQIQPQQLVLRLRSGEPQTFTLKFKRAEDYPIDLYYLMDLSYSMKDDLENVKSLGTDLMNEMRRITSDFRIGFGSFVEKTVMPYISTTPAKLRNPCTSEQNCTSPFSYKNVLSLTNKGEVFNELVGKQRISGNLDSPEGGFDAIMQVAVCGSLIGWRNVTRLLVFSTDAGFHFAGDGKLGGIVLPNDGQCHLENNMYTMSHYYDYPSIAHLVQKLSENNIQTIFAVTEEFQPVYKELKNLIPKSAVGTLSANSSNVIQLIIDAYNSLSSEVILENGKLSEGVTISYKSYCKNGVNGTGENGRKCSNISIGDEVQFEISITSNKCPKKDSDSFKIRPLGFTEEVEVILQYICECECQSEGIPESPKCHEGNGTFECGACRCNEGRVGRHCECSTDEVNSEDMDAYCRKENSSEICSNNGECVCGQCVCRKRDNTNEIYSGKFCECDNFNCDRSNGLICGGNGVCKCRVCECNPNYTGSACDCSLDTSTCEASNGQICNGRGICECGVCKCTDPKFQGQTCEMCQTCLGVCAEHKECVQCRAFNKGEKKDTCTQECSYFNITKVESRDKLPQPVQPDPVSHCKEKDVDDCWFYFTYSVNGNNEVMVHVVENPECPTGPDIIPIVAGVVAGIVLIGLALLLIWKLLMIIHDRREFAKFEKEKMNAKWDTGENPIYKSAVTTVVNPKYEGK
Method: The plate was then allowed to stand at 4° C. for one day, washed twice with TBS (200 μl/well), and then subjected to blocking with TBS (150 μl/well) containing 3% skim milk (DIFCO) at 4° C. overnight. […] After the completion of the reaction, the wells were washed five times with TBS-Tween. A solution prepared by diluting a peroxidase-labeled fibronectin antibody (CAPPEL) 500 times with TBS-Tween was added in an amount of 50 μl per well, and a reaction was allowed to proceed at room temperature for 1.5 hr. After washing five times with TBS-Tween (200 μl/well), ABTS (SIGMA) adjusted to 1 mg/ml by the addition of a ten-fold diluted POD-buffer (ZYMED) was added in an amount of 50 μl/well, and a reaction was allowed to proceed for 5 to 10 min. A 0.1 M citric acid buffer (pH 4.3) containing 0.05% NaN3 was added in an amount of 50 μl/well to stop the reaction, followed by the measurement of the absorbance at 415 nm with a microplate reader (MTP 32, Corona Electric) (reference: 675 nm). […] The inhibition was calculated by the following equation: [formula]
as §2

oral absorption [1]: excellent oral absorption
Compound: O=C(NC[C@H](NS(=O)(=O)c1ccccc1)C(=O)O)c1ccc(N2CCCN(c3ncccn3)CC2)cc1 [Example 5, (2S)-Benzenesulfonylamino-3-[4-{4-(pyrimidin-2-yl) -[1,4]diazepan-1-yl}-benzoylamino]-propionic acid]

IC50 [2]: 50 nM
Compound: CC1CN(c2ccc(C(=O)NC[C@H](NS(=O)(=O)c3ccccc3)C(=O)O)cc2)CCN1C1=NCCCN1 (stereo partly drawn) [Example 9, (2S)-Benzenesulfonylamino-3-[4-{3-methyl-4-(1,4,5,6-tetrahydropyrimidin-2-yl)-piperazin-1-yl}-benzoylamino]-propionic acid]
human platelet aggregation inhibition (in words) [2]: very strongly inhibited human platelet aggregation

IC50 [2]: 38 nM
Compound: N=C(N)N1CCN(c2ccc(C(=O)NC[C@H](NS(=O)(=O)c3ccccc3)C(=O)O)cc2)CC1 [Example 34, (2S)-Benzenesulfonylamino-3-[4-{4-(amidino)-piperazin-1-yl}-benzoylamino]-propionic Acid]
human platelet aggregation inhibition (in words) [2]: very strongly inhibited human platelet aggregation

IC50 [3]: ≤ 0.2 nM
IC50 [4]: 3.5 nM
IC50 [5]: 63000 nM
Compound: O=C(NC[C@H](NS(=O)(=O)c1ccccc1)C(=O)O)c1ccc(N2CCN(C3=NCCCN3)CC2)c(Cl)c1 [Example 59, (2S)-Benzenesulfonylamino-3-[3-chloro-4-{4-(1,4,5,6-tetrahydropyrimidin-2-yl)-piperazin-1-yl}-benzoylamino]-propionic Acid]

IC50 [3]: ≤ 0.2 nM
Compound: O=C(NC[C@H](NS(=O)(=O)c1ccccc1)C(=O)O)c1ccc(N2CCN(C3=NCCCN3)CC2)cc1Cl [Example 62, (2S)-Benzenesulfonylamino-3-[2-chloro-4-{4-(1,4,5,6-tetrahydropyrimidin-2-yl)-piperazin-1-yl}-benzoylamino]-propionic Acid]

Continued, compound first:

Compound: O=C(NC[C@H](NS(=O)(=O)c1ccccc1)C(=O)O)c1ccc(N2CCCN(C3=NCCCN3)CC2)cc1 [Example 6, (2S)-Benzenesulfonylamino-3-[4-{4-(1,4,5,6-tetrahydropyrimidin-2-yl)-[1,4]diazepan-1-yl}-benzoylamino]-propionic acid]
human platelet aggregation inhibition (in words) [2]: very strongly inhibited human platelet aggregation
IC50 [2]: 50 nM

Compound: C[C@@H]1CN(c2ccc(C(=O)NC[C@H](NS(=O)(=O)c3ccccc3)C(=O)O)cc2)CCN1C1=NCCCN1 [Example 12, (2S)-Benzenesulfonylamino-3-[4-{(3R)-methyl-4-(1,4,5,6-tetrahydropyrimidin-2-yl)-piperazin-1-yl}-benzoylamino]-propionic acid]
human platelet aggregation inhibition (in words) [2]: very strongly inhibited human platelet aggregation

Compound: O=C(NC[C@H](NS(=O)(=O)c1ccccc1)C(=O)O)c1ccc(N2CCN(C3=NCCCN3)CC2)cc1F [Example 56, (2S)-Benzenesulfonylamino-3-[2-fluoro-4-{4-(1,4,5,6-tetrahydropyrimidin-2-yl)-piperazin-1-yl}-benzoylamino]-propionic Acid]
IC50 [3]: ≤ 0.2 nM

Compound: Nc1c(N2CCN(C3=NCCCN3)CC2)ccc(C(=O)NC[C@H](NS(=O)(=O)c2ccccc2)C(=O)O)c1Cl [Example 65, 3-[3-Amino-2-chloro-4-{4-(1,4,5,6-tetrahydropyrimidin-2-yl)-piperazin-1-yl}-benzoylamino]-(2S)-benzenesulfonylamino-propionic Acid]
GP IIb/IIIa antagonistic activity (in words) [3]: extremely high GP IIb/IIIa antagonistic activity
integrin αvβ3 antagonistic activity (in words) [4]: high integrin αvβ3 antagonistic activity
IC50 [4]: 6.3 nM

Compound: C[C@H]1CN(c2ccc(C(=O)NC[C@H](NS(=O)(=O)c3ccccc3)C(=O)O)cc2F)CCN1C1=NCCCN1 [Example 72, (2S)-Benzenesulfonylamino-3-[3-fluoro-4-{(3S)-methyl-4-(1,4,5,6-tetrahydropyrimidin-2-yl)-piperazin-1-yl}-benzoylamino]-propionic Acid]
GP IIb/IIIa antagonistic activity (in words) [3]: extremely high GP IIb/IIIa antagonistic activity
IC50 [3]: ≤ 0.2 nM
integrin αvβ3 antagonistic activity (in words) [4]: high integrin αvβ3 antagonistic activity

Compound: Cc1cc(C)c(S(=O)(=O)N[C@@H](CNC(=O)c2ccc(N3CCN(c4ncccn4)CC3)c(F)c2)C(=O)O)c(C)c1 [Example 82, 3-[3-Fluoro-4-{4-(pyrimidin-2-yl)-piperazin-1-yl}-benzoylamino]-(2S)-(2,4,6-trimethyl-benzenesulfonylamino)-propionic Acid]
GP IIb/IIIa antagonistic activity (in words) [3]: extremely high GP IIb/IIIa antagonistic activity

Compound: Cc1cc(C)c(S(=O)(=O)N[C@@H](CNC(=O)c2ccc(N3CCN(C4=NCCCN4)CC3)c(F)c2)C(=O)O)c(C)c1 [Example 83, 3-[3-Fluoro-4-{4-(1,4,5,6-tetrahydropyrimidin-2-yl)-piperazin-1-yl}-benzoylamino]-(2S)-(2,4,6-trimethyl-benzenesulfonylamino)-propionic Acid]
IC50 [4]: 5.8 nM
IC50 [5]: 13000 nM

Source: patent US6451800B1, “Phenylpiperazine derivatives as integrin αvβ3 antagonists” (Meiji Seika Kaisha, Ltd., priority 1998, dated 2002)
